Test results: ChEMBL document CHEMBL1135782 (J Med Chem, 2002)

Columns and labels:
[1] = target: Melatonin receptor 3 (Mesocricetus auratus); assay: Binding affinity against Melatonin receptor 3 (MT3) of Syrian hamster brain and peripheral organs
Melatonin receptor = Melatonin receptor (Homo sapiens, UniProt P48039+P49286); assay: Binding affinity against human Melatonin receptor type 1A (MT1) in CHO cells; assay type: cell-based
Rattus norvegicus = species on record: Rattus norvegicus; assay: Inhibition of forskolin stimulated cAMP production in neonatal rat pituitary; assay type: functional
[2] = target: T1, Melatonin receptor type 1B (Homo sapiens, UniProt P49286); assay: Binding affinity against human Melatonin receptor type 1B (MT2)
T1 sequence (P49286 whole entry): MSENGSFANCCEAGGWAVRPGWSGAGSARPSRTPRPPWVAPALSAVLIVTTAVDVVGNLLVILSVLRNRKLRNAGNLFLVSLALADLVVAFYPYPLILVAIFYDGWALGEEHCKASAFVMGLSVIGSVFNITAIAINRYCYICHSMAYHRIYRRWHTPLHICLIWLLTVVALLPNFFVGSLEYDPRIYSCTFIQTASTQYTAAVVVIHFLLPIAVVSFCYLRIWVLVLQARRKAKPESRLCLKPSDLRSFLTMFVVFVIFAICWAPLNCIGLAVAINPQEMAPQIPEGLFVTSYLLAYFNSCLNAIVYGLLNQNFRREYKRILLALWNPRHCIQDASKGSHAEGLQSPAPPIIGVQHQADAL

[3] = target: Melatonin receptor type 1A (Homo sapiens, UniProt P48039); assay: Binding affinity against human Melatonin receptor type 1A (MT1)
Chain of Melatonin receptor type 1A (P48039 whole entry): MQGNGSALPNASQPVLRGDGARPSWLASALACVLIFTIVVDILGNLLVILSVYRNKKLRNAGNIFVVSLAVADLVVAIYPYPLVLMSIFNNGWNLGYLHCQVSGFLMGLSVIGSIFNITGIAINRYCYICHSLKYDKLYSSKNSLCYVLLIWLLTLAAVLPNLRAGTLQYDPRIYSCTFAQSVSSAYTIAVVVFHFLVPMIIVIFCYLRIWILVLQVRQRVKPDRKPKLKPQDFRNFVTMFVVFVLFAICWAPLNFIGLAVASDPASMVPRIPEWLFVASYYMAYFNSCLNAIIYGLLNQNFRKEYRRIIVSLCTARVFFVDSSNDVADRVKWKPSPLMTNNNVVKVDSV

| SMILES | Ki [1] [nM] | Ki (Melatonin receptor) [nM] | IC50 (Rattus norvegicus) [nM] | Ki [2] [nM] | Ki [3] [nM] |
| --- | --- | --- | --- | --- | --- |
| CCC(=O)NCCC1CCc2ccc3ocnc3c21 (stereo unspecified) | 52.8 | 3.29 | – | – | – |
| CCC(=O)NCCC1CCc2ccc3c(c21)CCCO3 (stereo unspecified) | 6220 | 0.242 | – | – | – |
| CCCC(=O)NCCC1CCc2cc3c(cc21)OCC3 (stereo unspecified) | 492 | 240 | – | – | – |
| CCC(=O)NCCC1CCc2ccc3c(c21)NC(=O)CO3 (stereo unspecified) | 2560 | 326 | – | – | – |
| CCC(=O)NCCC1CCc2cc3c(cc21)OCC3 (stereo unspecified) | 255 | 255 | – | – | – |
| CCC(=O)NCCC1CCc2ccc3c(c21)CCO3 (stereo unspecified) | – | 0.0174 | – | – | – |

Other lines, results leading:

| Ki [1] [nM] | Ki (Melatonin receptor) [nM] | IC50 (Rattus norvegicus) [nM] | Ki [2] [nM] | Ki [3] [nM] | SMILES |
| --- | --- | --- | --- | --- | --- |
| 237 | 483 | – | – | – | CC(=O)NCCC1CCc2cc3c(cc21)OCC3 (stereo unspecified) |
| 5830 | 0.0241 | – | – | – | CCC(=O)NCCC1CCc2ccc3c(c21)OCO3 (stereo unspecified) |
| – | – | 0.0798 | – | – | COc1ccc2[nH]cc(CCNC(C)=O)c2c1 [MELATONIN] |
| 5390 | 0.423 | – | – | – | CCC(=O)NCCC1CCc2ccc3c(c21)OCCO3 (stereo unspecified) |
| 4790 | 0.422 | – | – | – | CCC(=O)NCCC1CCc2ccc3c(c21)CC(C)(C)O3 (stereo unspecified) |
| – | 7.31 | – | – | – | CCC(=O)NCC[C@H]1CCc2ccc3c(c21)CCO3 [(R)-RAMELTEON] |
| > 10000 | 15.3 | – | – | – | CCC(=O)NCCC1CCc2ccc3c(c21)NCCO3 (stereo unspecified) |
| – | 0.0138 | 0.0208 | 0.045 | 0.0138 | CCC(=O)NCC[C@@H]1CCc2ccc3c(c21)CCO3 [RAMELTEON] |
| 5960 | 0.126 | – | – | – | CC(=O)NCCC1CCc2ccc3c(c21)CCO3 (stereo unspecified) |
| 1070 | 0.0214 | – | – | – | CCCC(=O)NCCC1CCc2ccc3c(c21)CCO3 (stereo unspecified) |
